Legend:
[1] = target: T1, mTORC2 (Homo sapiens, UniProt P42345); experiment: mTORC2 inhibitory activity in HeLa cells (Akt Ser473 phosphorylation, Western blot); type: cell-based; conditions: for selective inhibition of mTORC2: 40 μM, versus mTORC1; for selective inhibition of mTORC2 / remaining activity at 40 µM: 9 hours; for remaining activity at 40 µM: read-out: pSer473-AKT/AKT (% control); for inhibition at 40 µM: HeLa, 9 h, read-out: reduction in Akt Ser473 phosphorylation compared to the control group
T1 construct: the following experiments were conducted in HeLa cells; endogenous in cells; host or cells: HeLa
Procedure: (§1) Specifically, HeLa cells were cultured in a 5% CO2 incubator at 37° C. in DMEM (Dulbecco's Modified Eagles Media) medium supplemented with 10% FBS, penicillin (100 unit/ml), and streptomycin (100 μg/ml). Cultivation was started by seeding 4×10^5 cells in a 100 mm culture dish, and subculture was carried out every 3 days.
(§2) Human cell line HeLa cells were seeded in a 60 mm culture dish at a density of 2×10^5 cells/plate, and cultured for 24 hours. Then, HeLa cells were treated with 70 types of compounds at a concentration of 40 μM each for 9 hours. HeLa cells were washed twice with cold 1×PBS, and then lysed with 100 μl of RIPA buffer (50 mM Tris-HCl (pH7.4), 0.25% sodium deoxycholate, 50 mM NaF, 1% NP-40, 150 mM NaCl, 1 mM β-glycerophosphate, 1 mM PMSF, 1 mM NaVO4, 1 μg/ml leupeptin, 1 μg/ml pepstatin A, 10 nM calyculin A, 10 μg/ml aprotinin, 1 mM EDTA) to hemolyze the cell membrane. Then, the lysates were centrifuged at 12,000 rpm at 4° C. for 10 minutes to collect the supernatant, which is cell lysate. Protein concentration in the cell lysate was determined using the BCA protein assay kit (Thermo Fisher Scientific), and equal amounts of protein were separated by SDS-PAGE.
(§3) Western blot analysis was performed by the following method. […] After washing the membrane three times for 5 minutes each with TBS-T buffer, it was incubated with primary antibodies diluted in TBS-T buffer containing 5% skim milk or 5% BSA overnight at 4° C. Subsequently, the membrane was washed three times for 5 minutes each with TBS-T buffer, and then incubated with secondary antibodies diluted in TBS-T buffer containing 5% skim milk at room temperature for 30 minutes. The membrane was washed five times for 5 minutes each with TBS-T buffer containing 5% skim milk, and then the protein bands bound by the secondary antibody were detected using a chemiluminescence method. The primary antibodies used were Akt (cell signaling, #4691), pAkt(S473) (Cell signaling, #4060), p70S6K (Cell signaling, #S6198), pp70S6K(T389) (cell signaling, #9205S), LC3-II (MBL, #PM036), and the secondary antibodies used were HRP conjugated anti-rabbit (Jackson immunoresearch laboratory, #711-035-152) and HRP conjugated anti-mouse IgG (Jackson immunoresearch laboratory, #515-035-072).
As an mTORC2 activity indicator in HeLa cells, the level of Akt Ser473 phosphorylation was selected as a marker, and the phosphor-Akt (Ser473) signal obtained from Western blot analysis was normalized to the pan-Akt signal, and the data were expressed as a percentage relative to the control group treated with DMSO only, which is a vehicle.

[2] = target: T2, mTORC1 (Homo sapiens, UniProt P42345); experiment: mTORC1 inhibitory activity in HeLa cells (p70S6K Thr389 phosphorylation, Western blot); type: cell-based; conditions: for remaining activity at 40 µM: read-out: pThr389-S6K/S6K (% control); for inhibition at 40 µM: HeLa, 9 h, read-out: reduction in p70S6K Thr389 phosphorylation compared to the control group
T2 construct: the following experiments were conducted in HeLa cells; endogenous in cells; host or cells: HeLa
Procedure: as §1, §2, §3
As an mTORC1 activity indicator in HeLa cells, the level of p70S6K Thr389 phosphorylation was selected as a marker, and the level of phosphor-p70S6K (Thr389) signal measured by Western blot analysis was normalized to a level of pan-p70S6K signal, and then expressed as a percentage of the control group treated with only DMSO, which is a vehicle.

[3] = tested on: LC3-II; experiment: LC3-II formation as indicator of autophagy in HeLa cells (Western blot); type: cell-based, human; conditions: Homo sapiens, 9 hours, read-out: LC3-II (% control)
Procedure: as §1, §2, §3
LC3-II formation was selected as an indicator of autophagy in HeLa cells, and the LC3-II signal obtained from Western blot analysis was normalized to the pan-Akt signal and the data were expressed as a percentage relative to the control group treated with DMSO only, which is a vehicle.

Structure (SMILES)	selective inhibition of mTORC2 [1]	remaining activity at 40 µM [1]	inhibition at 40 µM [1]	remaining activity at 40 µM ([2]; 9 hours)	activity at 40 µM [3]	inhibition at 40 µM [2]	increase in S6K Thr389 phosphorylation ([2]; 40 μM, 9 hours)
O=C1c2cc(F)ccc2COc2cc3c(cc21)OCO3 [HN2203, 9-fluoro[2]benzoxepino[3,4-f]-1,3-benzodioxol-11(6H)-one]	selectively inhibit mTORC2	28%	> 20%	179%	119%		
CN(C)c1cc2c(cc1F)C(=O)c1cc3c(cc1OC2)OCO3 [HN2209, 8-(dimethylamino)-9-fluoro[2]benzoxepino[3,4-f]-1,3-benzodioxol-11(6H)-one]	selectively inhibit mTORC2	54%	> 20%	191%	124%		
O=C1c2cc(F)c(N3CCCCC3)cc2COc2cc3c(cc21)OCO3 [HN2211, 8-(piperidinyl)-9-fluoro[2]benzoxepino[3,4-f]-1,3-benzodioxol-11(6H)-one]		118%		77%	122%	> 20%	
O=C1c2cc(-c3ccc(Cl)cc3)ccc2COc2cc3c(cc21)OCO3 [HN2214, 9-(4-chlorophenyl)[2]benzoxepino[3,4-f]-1,3-benzodioxol-11(6H)-one]	selectively inhibit mTORC2	67%	> 20%	99%	154%		
O=C1c2cc(-c3ccoc3)ccc2COc2cc3c(cc21)OCO3 [HN2216, 9-(3-furanyl)[2]benzoxepino[3,4-f]-1,3-benzodioxol-11(6H)-one]	selectively inhibit mTORC2	64%	> 20%	121%	99%		21%
Cc1ccc(-c2ccc3c(c2)C(=O)c2cc4c(cc2OC3)OCO4)cc1 [HN2217, 9-(p-tolyl)[2]benzoxepino[3,4-f]-1,3-benzodioxol-11(6H)-one]	selectively inhibit mTORC2	38%	> 20%	224%	149%		
COc1cc2c(cc1OC)C(=O)c1cc(-c3cc(OC)c(OC)c(OC)c3)ccc1CS2 [HN2305, 2,3-dimethoxy-9-(3,4,5-trimethoxyphenyl)dibenzo[b,e]thiepin-11(6H)-one]		47%	> 20%	64%		> 20%	
COc1ccc(-c2ccc3c(c2)C(=O)c2cc(OC)c(OC)cc2SC3)cc1 [HN2306, 2,3-dimethoxy-9-(4-methoxyphenyl)dibenzo[b,e]thiepin-11(6H)-one]	selectively inhibit mTORC2	64%	> 20%	257%			
COc1cc2c(cc1OC)C(=O)c1cc(-c3ccc(C)cc3)ccc1CS2 [HN2307, 2,3-dimethoxy-9-(p-tolyl)dibenzo[b,e]thiepin-11(6H)-one]	selectively inhibit mTORC2	72%	> 20%	106%			
COc1cc2c(cc1OC)C(=O)c1cc(-c3ccc(Cl)cc3)ccc1CS2 [HN2309, 9-(4-chlorophenyl)-2,3-dimethoxydibenzo[b,e]thiepin-11(6H)-one]	selectively inhibit mTORC2	66%	> 20%	106%			
COc1cc2c(cc1OC)C(=O)c1cc(F)c(NCc3ccccc3)cc1CC2 [HN2317, 2-(benzylamino)-3-fluoro-7,8-dimethoxy-10,11-dihydro-5H-dibenzo[a,d][7]annulen-5-one]		107%		69%		> 20%	

Reference: US20260265267A1, “NOVEL COMPOUNDS WITH MTORC2-INHIBITORY ACTIVITY AND USES THEREOF” (Aliad Biopharma, priority 2023, published 2026)
